Experimental data from PubChem BioAssay (NCI).
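Test compounds were applied to cells in 96-well plates for 48 hours at 5 doses. At the GI50, growth is halved. TGI marks complete inhibition of growth.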

Experiments:
Assay in all cases: inhibition of tumour cell growth, NCI panel, 48 h
SK-MEL-2 melanoma = test system: SK-MEL-2 melanoma
BT-549 breast = test system: BT-549 breast
SR leukemia = test system: SR leukemia
UO-31 renal = test system: UO-31 renal
CAKI-1 renal = test system: CAKI-1 renal
SK-MEL-5 melanoma = test system: SK-MEL-5 melanoma
HCT-116 colon = test system: HCT-116 colon
NCI-H460 lung = test system: NCI-H460 lung
HCC-2998 colon = test system: HCC-2998 colon
HS 578T breast = test system: HS 578T breast
DU-145 prostate = test system: DU-145 prostate
MCF7 breast = test system: MCF7 breast
T-47D breast = test system: T-47D breast
COLO 205 colon = test system: COLO 205 colon
UACC-257 melanoma = test system: UACC-257 melanoma
OVCAR-8 ovarian = test system: OVCAR-8 ovarian
ACHN renal = test system: ACHN renal
SF-268 CNS = test system: SF-268 CNS
HCT-15 colon = test system: HCT-15 colon
K-562 leukemia = test system: K-562 leukemia
OVCAR-4 ovarian = test system: OVCAR-4 ovarian
LOX IMVI melanoma = test system: LOX IMVI melanoma
HL-60(TB) leukemia = test system: HL-60(TB) leukemia
A498 renal = test system: A498 renal
RPMI-8226 leukemia = test system: RPMI-8226 leukemia
SW-620 colon = test system: SW-620 colon
UACC-62 melanoma = test system: UACC-62 melanoma
U251 CNS = test system: U251 CNS
CCRF-CEM leukemia = test system: CCRF-CEM leukemia
OVCAR-5 ovarian = test system: OVCAR-5 ovarian
EKVX NSCLC = test system: EKVX NSCLC
IGROV1 ovarian = test system: IGROV1 ovarian
HOP-62 NSCLC = test system: HOP-62 NSCLC
MOLT-4 leukemia = test system: MOLT-4 leukemia
KM12 colon = test system: KM12 colon
NCI-H23 lung = test system: NCI-H23 lung
A549 NSCLC = test system: A549 NSCLC
MDA-MB-231 breast = test system: MDA-MB-231 breast
786-0 renal = test system: 786-0 renal
SF-295 CNS = test system: SF-295 CNS
HOP-92 NSCLC = test system: HOP-92 NSCLC
NCI/ADR-RES ovarian = test system: NCI/ADR-RES ovarian
SN12C renal = test system: SN12C renal
SNB-19 CNS = test system: SNB-19 CNS
NCI-H226 lung = test system: NCI-H226 lung
TK-10 renal = test system: TK-10 renal
PC-3 prostate = test system: PC-3 prostate
SK-MEL-28 melanoma = test system: SK-MEL-28 melanoma
SK-OV-3 ovarian = test system: SK-OV-3 ovarian
HT29 colon = test system: HT29 colon

## Cc1nc2c(c(N3CCCc4ccccc43)n1)CCC2
SK-MEL-2 melanoma
  GI50: 0.016 µM
  TGI: > 100 µM
BT-549 breast
  GI50: < 0.01 µM
  TGI: 19.6 µM
SR leukemia
  GI50: < 0.01 µM
  TGI: 13.1 µM
UO-31 renal
  GI50: < 0.01 µM
  TGI: > 100 µM
CAKI-1 renal
  GI50: < 0.01 µM
  TGI: > 100 µM
SK-MEL-5 melanoma
  GI50: < 0.01 µM
  TGI: 0.0233 µM
HCT-116 colon
  GI50: < 0.01 µM
  TGI: 20.6 µM
NCI-H460 lung
  GI50: < 0.01 µM
  TGI: > 100 µM
HCC-2998 colon
  GI50: < 0.01 µM
  TGI: > 100 µM
HS 578T breast
  GI50: < 0.01 µM
  TGI: > 100 µM
DU-145 prostate
  GI50: < 0.01 µM
  TGI: > 100 µM
MCF7 breast
  GI50: 0.0228 µM
  TGI: > 100 µM
T-47D breast
  GI50: 30.7 µM
  TGI: > 100 µM
COLO 205 colon
  GI50: < 0.01 µM
  TGI: 0.0111 µM
UACC-257 melanoma
  GI50: 12.9 µM
  TGI: > 100 µM
OVCAR-8 ovarian
  GI50: 0.0112 µM
  TGI: > 100 µM
ACHN renal
  GI50: < 0.01 µM
  TGI: > 100 µM
SF-268 CNS
  GI50: 0.0102 µM
  TGI: > 100 µM
HCT-15 colon
  GI50: < 0.01 µM
  TGI: > 100 µM
K-562 leukemia
  GI50: < 0.01 µM
  TGI: > 100 µM
OVCAR-4 ovarian
  GI50: 0.0406 µM
  TGI: > 100 µM
LOX IMVI melanoma
  GI50: < 0.01 µM
  TGI: > 100 µM
HL-60(TB) leukemia
  GI50: < 0.01 µM
A498 renal
  GI50: < 0.01 µM
RPMI-8226 leukemia
  GI50: < 0.01 µM
  TGI: 3.47 µM
SW-620 colon
  GI50: < 0.01 µM
  TGI: > 100 µM
UACC-62 melanoma
  GI50: < 0.01 µM
  TGI: > 100 µM
U251 CNS
  GI50: < 0.01 µM
  TGI: > 100 µM
CCRF-CEM leukemia
  GI50: < 0.01 µM
  TGI: > 100 µM
OVCAR-5 ovarian
  GI50: 1.7 µM
  TGI: > 100 µM
EKVX NSCLC
  GI50: < 0.01 µM
  TGI: > 100 µM
IGROV1 ovarian
  GI50: 0.0249 µM
  TGI: > 100 µM
HOP-62 NSCLC
  GI50: < 0.01 µM
  TGI: > 100 µM
MOLT-4 leukemia
  GI50: < 0.01 µM
  TGI: 3.07 µM
KM12 colon
  GI50: < 0.01 µM
  TGI: > 100 µM
NCI-H23 lung
  GI50: < 0.01 µM
  TGI: > 100 µM
A549 NSCLC
  GI50: < 0.01 µM
  TGI: > 100 µM
MDA-MB-231 breast
  GI50: 0.0137 µM
  TGI: > 100 µM
786-0 renal
  GI50: < 0.01 µM
  TGI: > 100 µM
SF-295 CNS
  GI50: < 0.01 µM
  TGI: > 100 µM
HOP-92 NSCLC
  GI50: 2.42 µM
  TGI: > 100 µM
NCI/ADR-RES ovarian
  GI50: < 0.01 µM
  TGI: 0.364 µM
SN12C renal
  GI50: 0.0161 µM
  TGI: > 100 µM
SNB-19 CNS
  GI50: < 0.01 µM
  TGI: > 100 µM
NCI-H226 lung
  GI50: < 0.01 µM
  TGI: 40.5 µM
TK-10 renal
  GI50: 1.62 µM
  TGI: > 100 µM
PC-3 prostate
  GI50: < 0.01 µM
  TGI: > 100 µM
SK-MEL-28 melanoma
  GI50: 11.7 µM
  TGI: > 100 µM
SK-OV-3 ovarian
  GI50: < 0.01 µM
  TGI: > 100 µM
HT29 colon
  GI50: < 0.01 µM
  TGI: 0.0131 µM
